Reference: patent US9273052B2, “Phthalazinone ketone derivative, preparation method thereof, and pharmaceutical use thereof” (Jiangsu Hansoh Pharmaceutical Co., Ltd., priority 2010, dated 2016)

Tests used:
MDA-MB-436 cells = experiment: Cell proliferation inhibition assay (CCK8); assay type: cell-based; conditions: Homo sapiens, 72 hours
[1] = Pharmacokinetics assay in SD rats (LC/MS/MS plasma concentration); assay type: in vivo; conditions: oral gavage, 15 mg/kg
Method: The pharmacokinetic behavior of the compounds of the present invention was studied and evaluated in rats.
24 Healthy adult SD rats, male and female in half, were purchased from SINO-BRITSH SIPPR/BK LAB. ANIMAL LTD., CO, Certificate No.: SCXK (Shanghai) 2003-0002.
The intragastrical administration group: the right amount of tested compounds were weighed and dissolved in 0.5 mL of DMSO, diluted with physiological saline to 10 mL and prepared to 1.5 mg/mL.
The intravenous injection administration group: the right amount of tested compounds were weighed and added into […].
After an overnight fast, 24 healthy adult SD rats, male and female in half, were administered intragastrically at a dose of 15.0 mg/kg and an administration volume of 10 mL/kg.
(§1) The intragastrical administration group: blood samples (0.2 mL) were taken from orbital sinus at pre administration and at 0.25 hour, 0.5 hour, 1.0 hour, 1.5 hours, 2.0 hours, 3.0 hours, 4.0 hours, 6.0 hours, 7.0 hours, 9.0 hours, 12.0 hours and 24.0 hours post administration, stored in heparinized tubes and centrifuged for 20 minutes at 3,500 rpm to separate plasma. The plasma samples were stored at −20° C. The rats were fed at 2 hours after administration.
as §1, with “intravenous injection” for “intragastrical”, “2 minutes, 15 minutes,” for “0.25 hour,”, “hour,” for “hour, 1.5 hours,”, “8.0” for “7.0 hours, 9.0”, “C.” for “C. The rats were fed at 2 hours after administration.”
20 μL of rat blank plasmas taken at various time points after administration were added with 50 μL of internal standard solution and 140 μL of methanol and mixed for 3 minutes by a vortexer. The mixture was centrifuged for 10 minutes at 13,500 rpm. 20 μL of the supernatant was analyzed by LC-MS/MS. The main pharmacokinetic parameters were calculated by software DAS 2.0.

[2] = test system: human colon carcinoma SW620; experiment: Antitumor effect with temozolomide on SW620 transplanted tumors in nude mice; assay type: in vivo; conditions: colon carcinoma SW620 in BALB/cA-nude mice; 10 mg/kg oral gavage + TMZ 50 mg/kg oral gavage; day 52
Method: The therapeutic effect of the compounds of the present invention administered in combination with temozolomide (TMZ) on transplanted tumors of human colon carcinoma SW620 or human breast cancer cells MX-1 in nude mice was evaluated by using BALB/cA-nude mice as test animals.
BALB/cA-nude mice, SPF, 16-20 g, female( ), were purchased from SINO-BRITSH SIPPR/BK LAB. ANIMAL LTD., CO. Certificate No.: SCXK(Shanghai) 2008-0016.
4.2 The right rib of the nude mice was subcutaneously inoculated with colon carcinoma cells SW620. After tumors grew to 339±132 mm^3, mice were randomly divided into teams (d0).
The volume of tumors and the weight of the mice were measured and recorded for 2 to 3 times per week.
The volume of tumor (V) was calculated by the follow equation: V=½×a×b^2 wherein: a, b represents length and width respectively. The antitumor rate(%)=(C−T)/C(%) wherein: T, C represents the tumor volume of the experimental group (tested compounds) and blank control group at the end of the experiment respectively. 5. Dosage, Dosage Regimens and the Results

[3] = test system: human breast cancer cells MX-1; experiment: Antitumor effect with temozolomide on MX-1 transplanted tumors in nude mice; assay type: in vivo; conditions: breast cancer MX-1 in BALB/cA-nude mice, day 8
Method: The therapeutic effect of the compounds of the present invention administered in combination with temozolomide (TMZ) on transplanted tumors of human colon carcinoma SW620 or human breast cancer cells MX-1 in nude mice was evaluated by using BALB/cA-nude mice as test animals. BALB/cA-nude mice, SPF, 16-20 g, female( ), were purchased from SINO-BRITSH SIPPR/BK LAB. ANIMAL LTD., CO. Certificate No.: SCXK(Shanghai) 2008-0016. Nude mice were subcutaneously inoculated with human breast cancer cells MX-1. After tumors grew to 100 to 200 mm^3, mice were randomly divided into teams (d0). The volume of tumors and the weight of the mice were measured and recorded for 2 to 3 times per week. The volume of tumor (V) was calculated by the follow equation: V=½×a×b^2 wherein: a, b represents length and width respectively. The antitumor rate(%)=(C−T)/C(%) wherein: T, C represents the tumor volume of the experimental group (tested compounds) and blank control group at the end of the experiment respectively. 5. Dosage, Dosage Regimens and the Results

IC50 (MDA-MB-436 cells): 49 nM
AUC ([1]; both sexes, rat, plasma, read-out: Area Under Curve AUC): 12600 ± 12400 ng·h/mL
half-life ([1]; both sexes, rat, plasma, read-out: Half-Life t1/2 (converted)): 9.79 ± 4.82 h
MRT ([1]; both sexes, rat, plasma, read-out: Mean Residence Time MRT): 3.5 ± 1.46 h
Cmax ([1]; both sexes, rat, plasma, read-out: Plasma Conc. Cmax): 2340 ± 1650 ng/mL
Apparent Distribution Volume Vz/F [1]: 7.97 ± 5.38 kg⁻¹
Clearance CL/F [1]: 3.45 ± 3.21 1/11/kg
Compound: O=C(c1cc(Cc2n[nH]c(=O)c3ccccc23)ccc1F)N1CCn2nc(C(F)(F)F)nc2C1 [Example 19, 4-[[4-fluoro-3-[2-(trifluoromethyl)-6,8-dihydro-5H-[1,2,4]triazolo[1,5-a]pyrazine-7-carbonyl]phenyl]methyl]-2H-phthalazin-1-one]
antitumor rate (%) [2]: ++ (“++”: 60%~80%)
antitumor rate (%) ([3]; 1 mg/kg oral gavage + TMZ 50 mg/kg oral gavage): +++ (“+++”: 80%~100%)
antitumor rate (%) ([3]; 3 mg/kg oral gavage + TMZ 50 mg/kg oral gavage): +++ (“+++”: 80%~100%)
antitumor rate (%) ([3]; 10 mg/kg oral gavage + TMZ 50 mg/kg oral gavage): +++ (“+++”: 80%~100%)
